Test results as given in PubChem BioAssay (NCI).
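Step 1: Grow cells in 96-well plates. Step 2: Expose to compound for 48 hours at 5 concentrations. Step 3: Interpolate endpoints linearly; if unreached, use highest concentration. GI50 is the concentration that inhibits growth by half. The concentration for full growth arrest is given as TGI.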

Tests used:
Assay in all cases: inhibition of tumour cell growth, NCI panel, 48 h
[1] = system: NCI-H23 lung
[2] = system: SK-MEL-2 melanoma
[3] = system: OVCAR-3 ovarian
[4] = system: ACHN renal
[5] = system: SN12C renal
[6] = system: KM12 colon
[7] = system: MOLT-4 leukemia
[8] = system: RPMI-8226 leukemia
[9] = system: HCT-15 colon
[10] = system: NCI/ADR-RES ovarian

SMILES: Fc1ccccc1C1CC(c2ccc3ccccc3c2)=Nc2ccccc2S1 (configuration not stated)
- TGI [1]: > 100 µM
- TGI [2]: > 100 µM
- TGI [3]: > 100 µM
- TGI [4]: > 100 µM
- TGI [5]: > 100 µM
- TGI [6]: > 100 µM
- TGI [7]: > 100 µM

SMILES: CC1C[C@@H]2C(=O)NC(=O)[C@@H]2c2c1c1ccccc1n2C (some centres not stated)
- TGI [8]: > 100 µM
- TGI [9]: > 100 µM
- TGI [1]: > 100 µM
- TGI [2]: > 100 µM
- TGI [3]: > 100 µM
- TGI [5]: > 100 µM
- TGI [6]: > 100 µM
- TGI [7]: > 100 µM

SMILES: CC1OC(OC2C(O[C@H]3CC[C@@]4(C)C(=CC[C@H]5[C@@H]6C[C@@H]7O[C@]8(CC[C@H](C)CN8)[C@@H](C)[C@@H]7[C@@]6(C)CC[C@@H]54)C3)OC(CO)C(O)C2OC2OC(CO)C(O)C(O)C2O)C(O)C(O)C1O (some centres not stated)
- TGI [9]: 30.3 µM
- TGI [10]: 32.5 µM
- TGI [1]: 32.5 µM
- TGI [2]: 32.4 µM
- TGI [4]: 31.4 µM
- TGI [5]: 38.6 µM
- TGI [6]: 34.9 µM
- TGI [7]: 42.1 µM

SMILES: CCc1cccc(C(C)C)c1NC(=O)C(=O)C(CC(=O)Nc1ccc(Cl)c(Cl)c1)C(=O)OC (configuration not stated)
- TGI [8]: > 100 µM
- TGI [9]: 32.8 µM
- TGI [1]: > 100 µM
- TGI [2]: > 100 µM
- TGI [3]: > 100 µM
- TGI [4]: > 100 µM
- TGI [5]: > 100 µM
- TGI [6]: > 100 µM
- TGI [7]: > 100 µM

SMILES: Cc1ccc(S(=O)(=O)OCC23CCC(CC2)C2CC23)cc1 (configuration not stated)
- TGI [8]: 87.8 µM
- TGI [9]: > 100 µM
- TGI [1]: > 100 µM
- TGI [3]: > 100 µM
- TGI [4]: > 100 µM
- TGI [5]: > 100 µM
- TGI [7]: > 100 µM

SMILES: C1CCN(c2nc(=[N+]3CCCCC3)ss2)CC1
- TGI [8]: > 100 µM
- TGI [9]: > 100 µM
- TGI [1]: > 100 µM
- TGI [2]: > 100 µM
- TGI [4]: > 100 µM
- TGI [5]: > 100 µM
- TGI [6]: > 100 µM
- TGI [7]: > 100 µM

SMILES: COC(=O)CCC(=O)CC(=O)C(=O)Nc1c(Cl)cc([N+](=O)[O-])cc1Cl
- TGI [8]: 88.1 µM
- TGI [9]: > 100 µM
- TGI [1]: > 100 µM
- TGI [2]: > 100 µM
- TGI [3]: > 100 µM
- TGI [4]: > 100 µM
- TGI [5]: > 100 µM
- TGI [6]: > 100 µM
- TGI [7]: > 100 µM

SMILES: CN(C)c1ccc(Nc2cc(-c3cccc(OC(F)(F)F)c3)nc3ccc(N4CCCC4)cc23)cc1
- GI50 [8]: 1.87 µM
- TGI [8]: 4.48 µM
- GI50 [9]: 1.75 µM
- TGI [9]: 3.53 µM
- GI50 [10]: 1.92 µM
- TGI [10]: 3.88 µM
- GI50 [1]: 2.06 µM
- TGI [1]: 4.39 µM
- GI50 [2]: 12.4 µM
- TGI [2]: 26.5 µM
- GI50 [3]: 1.74 µM
- TGI [3]: 3.14 µM
- GI50 [4]: 2.05 µM
- TGI [4]: 4.36 µM
- GI50 [5]: 1.78 µM
- TGI [5]: 3.5 µM

SMILES: C[C@@H](CO)[C@@H]1CCC=C2CC[C@]3(C)[C@H](CC[C@@H]4[C@@]5(C)CCCNC(C)(C)[C@@H]5CC[C@]43C)[C@H]21
- GI50 [9]: 1.49 µM
- TGI [9]: 2.99 µM
- GI50 [10]: 2.05 µM
- TGI [10]: 4.45 µM
- GI50 [1]: 3.94 µM
- TGI [1]: 14.3 µM
- GI50 [2]: 2.08 µM
- TGI [2]: 4.29 µM
- GI50 [3]: 2.16 µM
- TGI [3]: 4.87 µM
- GI50 [4]: 2.45 µM
- TGI [4]: 6.52 µM
- GI50 [5]: 3.11 µM
- TGI [5]: 12.5 µM
- GI50 [6]: 1.97 µM
- TGI [6]: 4.09 µM
- GI50 [7]: 2.5 µM
- TGI [7]: 7.27 µM

SMILES: COCCCNC(=O)CC(=O)NCCCOC
- TGI [8]: > 100 µM
- TGI [9]: > 100 µM
- TGI [1]: > 100 µM
- TGI [2]: > 100 µM
- TGI [3]: > 100 µM
- TGI [4]: > 100 µM
- TGI [5]: > 100 µM
- TGI [6]: > 100 µM
- TGI [7]: > 100 µM

SMILES: O=C1C2C3C=CC(C2C(=O)N1COP(=O)(O)O)C1C2C(=O)N(COP(=O)(O)O)C(=O)C2C31 (configuration not stated)
- TGI [8]: > 68.5 µM
- TGI [9]: > 57.9 µM
- TGI [1]: > 100 µM
- TGI [2]: > 100 µM
- TGI [3]: > 100 µM
- TGI [4]: > 100 µM
- TGI [5]: > 100 µM
- TGI [6]: > 100 µM
- TGI [7]: > 100 µM

SMILES: CCCCCCCCCc1cccc(N2C(N)=NC(N)=NC2(C)C)c1
- TGI [8]: > 100 µM
- TGI [9]: 0.169 µM
- TGI [10]: 24.9 µM
- TGI [1]: 0.277 µM
- TGI [2]: 4.65 µM
- TGI [3]: 0.193 µM
- TGI [4]: 1.06 µM
- TGI [5]: 2.33 µM

SMILES: CCCCCCCCCCCCCP(=O)(O)OCC
- TGI [9]: > 100 µM
- TGI [1]: > 100 µM
- TGI [2]: > 100 µM
- TGI [3]: > 100 µM
- TGI [4]: > 100 µM
- TGI [5]: > 100 µM
- TGI [6]: > 100 µM

SMILES: O=C(O)/C(=C/C=C/c1ccccc1)c1csc(-c2nc(/C(=C\C=C\c3ccccc3)C(=O)O)cs2)n1
- TGI [8]: 65.3 µM
- TGI [9]: > 100 µM
- TGI [2]: 43.6 µM
- TGI [3]: 57.5 µM
- TGI [4]: 92.5 µM
- TGI [5]: > 100 µM
- TGI [6]: 92.4 µM
- TGI [7]: 16.4 µM

SMILES: C=C(Br)N(CC)CC
- TGI [8]: > 100 µM
- TGI [9]: > 100 µM
- TGI [1]: > 100 µM
- TGI [2]: > 100 µM
- TGI [3]: > 100 µM
- TGI [4]: > 100 µM
- TGI [5]: > 100 µM
- TGI [6]: > 100 µM
- TGI [7]: > 100 µM

SMILES: NCCCNCCCCN(CCCN)/[N+]([O-])=N\O
- TGI [8]: > 100 µM
- TGI [9]: > 100 µM
- TGI [1]: > 100 µM
- TGI [2]: > 100 µM
- TGI [3]: > 100 µM
- TGI [4]: > 100 µM
- TGI [5]: > 100 µM
- TGI [6]: > 100 µM
- TGI [7]: > 100 µM

SMILES: C[C@]1(CO)CCC[C@@]2(C)C1CC[C@H]1CC3C[C@]12CC[C@]3(C)O (some centres not stated)
- TGI [8]: > 100 µM
- TGI [9]: > 100 µM
- TGI [1]: > 100 µM
- TGI [3]: > 100 µM
- TGI [4]: > 100 µM
- TGI [5]: > 100 µM
- TGI [6]: > 100 µM
- TGI [7]: > 100 µM

SMILES: Clc1ccc(C2SCc3nc4ccccc4n32)cc1Cl (configuration not stated)
- TGI [8]: 96.1 µM
- TGI [9]: 28.4 µM
- TGI [1]: 27.5 µM
- TGI [2]: 35.5 µM
- TGI [3]: 22.5 µM
- TGI [4]: 29.1 µM
- TGI [5]: 26 µM
- TGI [6]: 27 µM
- TGI [7]: > 100 µM

SMILES: CCc1cccc(C(C)C)c1N1C(=O)C(=O)C(c2nc3ccccc3s2)C(=O)C1=O
- TGI [8]: > 50 µM
- TGI [9]: > 50 µM
- TGI [1]: > 50 µM
- TGI [2]: > 50 µM
- TGI [3]: > 43.1 µM
- TGI [4]: > 50 µM
- TGI [5]: > 50 µM
- TGI [6]: > 50 µM
- TGI [7]: 42.7 µM

SMILES: COc1cc2c3c(c1OC)-c1c(ccc4c1OCO4)CC3(C#N)N(C(=O)c1ccccc1)CC2 (configuration not stated)
- TGI [8]: > 100 µM
- TGI [9]: > 100 µM
- TGI [1]: > 100 µM
- TGI [3]: > 100 µM
- TGI [5]: > 100 µM
- TGI [6]: > 100 µM
- TGI [7]: > 100 µM

SMILES: CCC1CN2CCc3c([nH]c4ccccc34)C2C[C@@H]1CC(=O)N(C)C (some centres not stated)
- TGI [9]: > 100 µM
- TGI [1]: > 100 µM
- TGI [2]: > 100 µM
- TGI [3]: > 100 µM
- TGI [4]: > 100 µM
- TGI [5]: > 100 µM
- TGI [6]: > 100 µM
- TGI [7]: > 100 µM

SMILES: CCOC(=O)C(=Cc1ccc(Oc2ccccc2)cc1)C(=O)OCC
- TGI [8]: 6.89 µM
- TGI [9]: 6.35 µM
- TGI [1]: 6.93 µM
- TGI [2]: 4.4 µM
- TGI [3]: 19.1 µM
- TGI [4]: 18.3 µM
- TGI [5]: 5.65 µM
- TGI [6]: 19 µM
- TGI [7]: 4.93 µM

SMILES: Cc1cc(C)nc(NS(=O)(=O)c2ccc(Nc3c4ccc(Cl)cc4nc4c(C(=O)Nc5ccc(S(N)(=O)=O)cc5)cccc34)cc2)n1
- TGI [8]: 76.5 µM
- TGI [9]: 36.2 µM
- TGI [1]: 43 µM
- TGI [3]: 30.2 µM
- TGI [4]: > 100 µM
- TGI [5]: 30.2 µM
- TGI [6]: 27.2 µM
- TGI [7]: 39.7 µM
